Experimental data taken from PubChem BioAssay (NCI).
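Here, GI50 denotes the concentration required for 50% inhibition of growth. Definition used: TGI = concentration required for complete inhibition of growth.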

Experiments:
Test in all cases: NCI anticancer screen, dose series, 384-well format
KM12 colon = system: KM12 colon
RXF 393 renal = system: RXF 393 renal
PC-3 prostate = system: PC-3 prostate
SK-OV-3 ovarian = system: SK-OV-3 ovarian
SF-268 CNS = system: SF-268 CNS
MALME-3M melanoma = system: MALME-3M melanoma
SK-MEL-28 melanoma = system: SK-MEL-28 melanoma
HS 578T breast = system: HS 578T breast
SW-620 colon = system: SW-620 colon
UACC-62 melanoma = system: UACC-62 melanoma
HCT-15 colon = system: HCT-15 colon
UACC-257 melanoma = system: UACC-257 melanoma
SF-539 CNS = system: SF-539 CNS
OVCAR-4 ovarian = system: OVCAR-4 ovarian
MCF7 breast = system: MCF7 breast
DU-145 prostate = system: DU-145 prostate
HCC-2998 colon = system: HCC-2998 colon
NCI-H23 lung = system: NCI-H23 lung
NCI-H226 lung = system: NCI-H226 lung
RPMI-8226 leukemia = system: RPMI-8226 leukemia
MOLT-4 leukemia = system: MOLT-4 leukemia
CCRF-CEM leukemia = system: CCRF-CEM leukemia
MDA-MB-435 melanoma = system: MDA-MB-435 melanoma
IGROV1 ovarian = system: IGROV1 ovarian
OVCAR-3 ovarian = system: OVCAR-3 ovarian
NCI-H460 NSCLC = system: NCI-H460 NSCLC
BT-549 breast = system: BT-549 breast
HL-60(TB) leukemia = system: HL-60(TB) leukemia
UO-31 renal = system: UO-31 renal
HT29 colon = system: HT29 colon
SR leukemia = system: SR leukemia
EKVX NSCLC = system: EKVX NSCLC
SNB-75 CNS = system: SNB-75 CNS
HOP-92 NSCLC = system: HOP-92 NSCLC
OVCAR-8 ovarian = system: OVCAR-8 ovarian
COLO 205 colon = system: COLO 205 colon
MDA-MB-468 breast = system: MDA-MB-468 breast
NCI-H322M lung = system: NCI-H322M lung
SN12C renal = system: SN12C renal
TK-10 renal = system: TK-10 renal
U251 glioblastoma = system: U251 glioblastoma
ACHN renal = system: ACHN renal
SK-MEL-5 melanoma = system: SK-MEL-5 melanoma
K-562 leukemia = system: K-562 leukemia
SF-295 CNS = system: SF-295 CNS
HOP-62 NSCLC = system: HOP-62 NSCLC
CAKI-1 renal = system: CAKI-1 renal
SNB-19 CNS = system: SNB-19 CNS
MDA-MB-231 breast = system: MDA-MB-231 breast
OVCAR-5 ovarian = system: OVCAR-5 ovarian
M14 melanoma = system: M14 melanoma
NCI-H522 lung = system: NCI-H522 lung
786-0 renal = system: 786-0 renal
LOX IMVI melanoma = system: LOX IMVI melanoma
A498 renal = system: A498 renal
T-47D breast = system: T-47D breast
NCI/ADR-RES ovarian = system: NCI/ADR-RES ovarian
A549 NSCLC = system: A549 NSCLC

Q: Which GI50 (KM12 colon) does the source give for `CN(C)CCOc1ccc(-c2nc(-c3ccc4c(c3)CC/C4=N\O)c(-c3ccncc3)[nH]2)cc1` here?
A: 1900 nM

Q: And the TGI (KM12 colon)?
A: 3330 nM

Q: What about the GI50 (RXF 393 renal) of the same compound?
A: 1680 nM

Q: And the TGI (RXF 393 renal)?
A: 3050 nM

Q: And the GI50 (PC-3 prostate)?
A: 1780 nM

Q: And the TGI (PC-3 prostate)?
A: 3270 nM

Q: And the GI50 (SK-OV-3 ovarian)?
A: 1790 nM

Q: What about the TGI (SK-OV-3 ovarian) of the same compound?
A: 3190 nM

Q: And the GI50 (SF-268 CNS)?
A: 1810 nM

Q: What about the TGI (SF-268 CNS) of the same compound?
A: 3220 nM

Q: What about the GI50 (MALME-3M melanoma) of the same compound?
A: 10.6 nM

Q: And the TGI (MALME-3M melanoma)?
A: 34.2 nM

Q: And the GI50 (SK-MEL-28 melanoma)?
A: 27.7 nM

Q: And the TGI (SK-MEL-28 melanoma)?
A: 198 nM

Q: And the GI50 (HS 578T breast)?
A: 1880 nM

Q: What about the TGI (HS 578T breast) of the same compound?
A: 3290 nM

Q: What about the GI50 (SW-620 colon) of the same compound?
A: 2360 nM

Q: What about the TGI (SW-620 colon) of the same compound?
A: 3850 nM

Q: And the GI50 (UACC-62 melanoma)?
A: 22.6 nM

Q: What about the TGI (UACC-62 melanoma) of the same compound?
A: 285 nM

Q: And the GI50 (HCT-15 colon)?
A: 2450 nM

Q: What about the TGI (HCT-15 colon) of the same compound?
A: 6460 nM

Q: What about the GI50 (UACC-257 melanoma) of the same compound?
A: 25.7 nM

Q: And the TGI (UACC-257 melanoma)?
A: 164 nM

Q: What about the GI50 (SF-539 CNS) of the same compound?
A: 2140 nM

Q: And the TGI (SF-539 CNS)?
A: 3600 nM

Q: What about the GI50 (OVCAR-4 ovarian) of the same compound?
A: 2680 nM

Q: And the TGI (OVCAR-4 ovarian)?
A: 4170 nM

Q: What about the GI50 (MCF7 breast) of the same compound?
A: 1460 nM

Q: And the TGI (MCF7 breast)?
A: 2810 nM

Q: What about the GI50 (DU-145 prostate) of the same compound?
A: 3090 nM

Q: And the TGI (DU-145 prostate)?
A: 9610 nM

Q: And the GI50 (HCC-2998 colon)?
A: 1690 nM

Q: And the TGI (HCC-2998 colon)?
A: 3080 nM

Q: What about the GI50 (NCI-H23 lung) of the same compound?
A: 1380 nM

Q: And the TGI (NCI-H23 lung)?
A: 2860 nM

Q: What about the GI50 (NCI-H226 lung) of the same compound?
A: 2320 nM

Q: What about the TGI (NCI-H226 lung) of the same compound?
A: 3780 nM

Q: What about the GI50 (RPMI-8226 leukemia) of the same compound?
A: 1900 nM

Q: And the TGI (RPMI-8226 leukemia)?
A: 3360 nM

Q: And the GI50 (MOLT-4 leukemia)?
A: 2150 nM

Q: And the TGI (MOLT-4 leukemia)?
A: 3600 nM

Q: And the GI50 (CCRF-CEM leukemia)?
A: 1880 nM

Q: And the TGI (CCRF-CEM leukemia)?
A: 3290 nM

Q: And the GI50 (MDA-MB-435 melanoma)?
A: 58.9 nM

Q: And the TGI (MDA-MB-435 melanoma)?
A: 1600 nM

Q: What about the GI50 (IGROV1 ovarian) of the same compound?
A: 13100 nM

Q: And the TGI (IGROV1 ovarian)?
A: 25900 nM

Q: What about the GI50 (OVCAR-3 ovarian) of the same compound?
A: 2070 nM

Q: And the TGI (OVCAR-3 ovarian)?
A: 3520 nM

Q: What about the GI50 (NCI-H460 NSCLC) of the same compound?
A: 1890 nM

Q: What about the TGI (NCI-H460 NSCLC) of the same compound?
A: 3380 nM

Q: What about the GI50 (BT-549 breast) of the same compound?
A: 1960 nM

Q: And the TGI (BT-549 breast)?
A: 3390 nM

Q: And the GI50 (HL-60(TB) leukemia)?
A: 941 nM

Q: And the TGI (HL-60(TB) leukemia)?
A: 2090 nM

Q: What about the GI50 (UO-31 renal) of the same compound?
A: 15800 nM

Q: What about the TGI (UO-31 renal) of the same compound?
A: 29500 nM

Q: What about the GI50 (HT29 colon) of the same compound?
A: 555 nM

Q: And the TGI (HT29 colon)?
A: 2060 nM

Q: And the GI50 (SR leukemia)?
A: 1710 nM

Q: And the TGI (SR leukemia)?
A: 3090 nM

Q: What about the GI50 (EKVX NSCLC) of the same compound?
A: 1890 nM

Q: And the TGI (EKVX NSCLC)?
A: 3430 nM

Q: And the GI50 (SNB-75 CNS)?
A: 2070 nM

Q: And the TGI (SNB-75 CNS)?
A: 3510 nM

Q: What about the GI50 (HOP-92 NSCLC) of the same compound?
A: 1740 nM

Q: And the TGI (HOP-92 NSCLC)?
A: 3120 nM

Q: What about the GI50 (OVCAR-8 ovarian) of the same compound?
A: 1890 nM

Q: And the TGI (OVCAR-8 ovarian)?
A: 3320 nM

Q: What about the GI50 (COLO 205 colon) of the same compound?
A: 20.3 nM

Q: And the TGI (COLO 205 colon)?
A: 1130 nM

Q: What about the GI50 (MDA-MB-468 breast) of the same compound?
A: 2140 nM

Q: What about the TGI (MDA-MB-468 breast) of the same compound?
A: 3580 nM

Q: And the GI50 (NCI-H322M lung)?
A: 1850 nM

Q: And the TGI (NCI-H322M lung)?
A: 3510 nM

Q: What about the GI50 (SN12C renal) of the same compound?
A: 14200 nM

Q: And the TGI (SN12C renal)?
A: 27300 nM

Q: What about the GI50 (TK-10 renal) of the same compound?
A: 3980 nM

Q: What about the TGI (TK-10 renal) of the same compound?
A: 13000 nM

Q: And the GI50 (U251 glioblastoma)?
A: 2010 nM

Q: And the TGI (U251 glioblastoma)?
A: 3480 nM

Q: And the GI50 (ACHN renal)?
A: 2140 nM

Q: And the TGI (ACHN renal)?
A: 4320 nM

Q: What about the GI50 (SK-MEL-5 melanoma) of the same compound?
A: 130 nM

Q: What about the TGI (SK-MEL-5 melanoma) of the same compound?
A: 1570 nM

Q: What about the GI50 (K-562 leukemia) of the same compound?
A: 1970 nM

Q: And the TGI (K-562 leukemia)?
A: 3430 nM

Q: And the GI50 (SF-295 CNS)?
A: 7010 nM

Q: What about the TGI (SF-295 CNS) of the same compound?
A: 19100 nM

Q: And the GI50 (HOP-62 NSCLC)?
A: 1850 nM

Q: And the TGI (HOP-62 NSCLC)?
A: 3260 nM

Q: And the GI50 (CAKI-1 renal)?
A: 1980 nM

Q: What about the TGI (CAKI-1 renal) of the same compound?
A: 3430 nM

Q: What about the GI50 (SNB-19 CNS) of the same compound?
A: 2070 nM

Q: What about the TGI (SNB-19 CNS) of the same compound?
A: 4060 nM

Q: What about the GI50 (MDA-MB-231 breast) of the same compound?
A: 1150 nM

Q: And the TGI (MDA-MB-231 breast)?
A: 2370 nM

Q: And the GI50 (OVCAR-5 ovarian)?
A: 1860 nM

Q: What about the TGI (OVCAR-5 ovarian) of the same compound?
A: 3320 nM

Q: And the GI50 (M14 melanoma)?
A: 33.4 nM

Q: And the TGI (M14 melanoma)?
A: 839 nM

Q: What about the GI50 (NCI-H522 lung) of the same compound?
A: 1590 nM

Q: What about the TGI (NCI-H522 lung) of the same compound?
A: 2950 nM

Q: And the GI50 ([…]-0 renal)?
A: 1790 nM

Q: And the TGI (786-0 renal)?
A: 3200 nM

Q: What about the GI50 (LOX IMVI melanoma) of the same compound?
A: 963 nM

Q: What about the TGI (LOX IMVI melanoma) of the same compound?
A: 2160 nM

Q: What about the GI50 (A498 renal) of the same compound?
A: 1880 nM

Q: What about the TGI (A498 renal) of the same compound?
A: 3310 nM

Q: And the GI50 (T-47D breast)?
A: 1880 nM

Q: And the TGI (T-47D breast)?
A: 3300 nM

Q: What about the GI50 (NCI/ADR-RES ovarian) of the same compound?
A: 21900 nM

Q: And the TGI (NCI/ADR-RES ovarian)?
A: 58300 nM

Q: What about the GI50 (A549 NSCLC) of the same compound?
A: 1990 nM

Q: And the TGI (A549 NSCLC)?
A: 4020 nM
